The values below come from ChEMBL document CHEMBL5370608, “Selective and Bioavailable HDAC6 2-(Difluoromethyl)-1,3,4-oxadiazole Substrate Inhibitors and Modeling of Their Bioactivation Mechanism” (J Med Chem, 2023).

A short description of data set [1]: Clearance in Wistar Han rat at 0.5 mg/kg, iv measured upto 24 hrs by LC-MS/MS analysis. It counts as ADME, organism-based. The note with it: in vivo.
A short description of data set [2]: Plasma protein binding in human assessed as unbound fraction. It counts as ADME, cell-free.
Data set [3] can be described thus: Volume of distribution at steady state in Wistar Han rat at 1 mg/kg, po or 0.5 mg/kg, iv measured upto 24 hrs by LC-MS/MS analysis. To be noted: in vivo. It counts as ADME, organism-based.
The nature of data set [4]: Metabolic stability in human hepatocytes assessed as intrinsic clearance at 1 uM measured per 10^6 cells incubated at 2 to 60 mins by LC-MS/MS analysis. It counts as ADME, cell-based, Hepatocyte. To be noted: time 2-60 min, read-out: CLH.
Data set [5] concerns the target T1, Protein deacetylase HDAC6 (Mus musculus, UniProt Q9Z2V5).
T1 sequence (Q9Z2V5 whole entry): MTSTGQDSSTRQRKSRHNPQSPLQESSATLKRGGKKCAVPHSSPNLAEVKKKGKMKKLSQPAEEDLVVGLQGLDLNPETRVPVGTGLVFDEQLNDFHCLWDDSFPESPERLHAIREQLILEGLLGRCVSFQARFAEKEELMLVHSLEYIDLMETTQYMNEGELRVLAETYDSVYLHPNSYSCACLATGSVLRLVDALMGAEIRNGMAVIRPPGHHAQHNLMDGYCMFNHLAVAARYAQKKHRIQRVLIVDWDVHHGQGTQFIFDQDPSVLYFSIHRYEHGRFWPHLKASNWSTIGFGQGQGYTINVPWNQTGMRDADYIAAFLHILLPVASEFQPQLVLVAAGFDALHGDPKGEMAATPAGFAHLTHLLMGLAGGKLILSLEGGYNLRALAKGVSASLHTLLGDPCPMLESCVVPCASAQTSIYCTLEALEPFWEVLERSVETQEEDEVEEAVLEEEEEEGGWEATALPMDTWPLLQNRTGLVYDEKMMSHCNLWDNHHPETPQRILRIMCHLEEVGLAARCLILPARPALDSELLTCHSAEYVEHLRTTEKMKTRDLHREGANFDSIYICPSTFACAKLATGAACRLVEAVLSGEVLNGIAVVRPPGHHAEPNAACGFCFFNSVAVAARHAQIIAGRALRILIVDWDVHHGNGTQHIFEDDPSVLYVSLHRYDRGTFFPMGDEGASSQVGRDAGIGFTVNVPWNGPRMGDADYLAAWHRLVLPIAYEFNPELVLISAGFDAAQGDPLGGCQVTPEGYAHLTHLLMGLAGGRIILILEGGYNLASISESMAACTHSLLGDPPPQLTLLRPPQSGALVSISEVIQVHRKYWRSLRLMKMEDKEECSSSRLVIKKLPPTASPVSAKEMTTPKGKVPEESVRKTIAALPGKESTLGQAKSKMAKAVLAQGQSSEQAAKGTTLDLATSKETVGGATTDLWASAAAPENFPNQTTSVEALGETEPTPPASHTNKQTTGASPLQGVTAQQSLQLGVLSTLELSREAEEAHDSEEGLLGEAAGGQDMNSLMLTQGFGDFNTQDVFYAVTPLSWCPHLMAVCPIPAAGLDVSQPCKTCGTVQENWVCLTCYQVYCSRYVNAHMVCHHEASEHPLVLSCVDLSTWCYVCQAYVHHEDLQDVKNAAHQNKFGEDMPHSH
Description: Inhibition of HDAC6 in mouse LA-4 cells assessed as deacetylation of acetylated alpha-tubulin level incubated for 24 hrs by Western blot analysis. It counts as cell-based.

Data set [6] can be described thus: Half life in C57/BI mouse at 10 mg/kg, po measured upto 24 hrs by LC-MS/MS analysis. It counts as ADME, organism-based. The note with it: in vivo.
Data set [7] is described as follows: Half life in C57/BI mouse at 2 mg/kg, iv measured upto 24 hrs by LC-MS/MS analysis. It counts as ADME, organism-based. To be noted: in vivo.
A short description of data set [8]: Chemical stability of compound in sodium phosphate buffer at pH 7.4 assessed as half life by UPLC analysis. It counts as physicochemical.
A short description of data set [9]: Chemical stability of compound in HCL solution at pH 1 assessed as half life by UPLC analysis. It counts as physicochemical.
Data set [10] concerns the target T2, Protein deacetylase HDAC6 (Homo sapiens, UniProt Q9UBN7).
T2 sequence (Q9UBN7 whole entry): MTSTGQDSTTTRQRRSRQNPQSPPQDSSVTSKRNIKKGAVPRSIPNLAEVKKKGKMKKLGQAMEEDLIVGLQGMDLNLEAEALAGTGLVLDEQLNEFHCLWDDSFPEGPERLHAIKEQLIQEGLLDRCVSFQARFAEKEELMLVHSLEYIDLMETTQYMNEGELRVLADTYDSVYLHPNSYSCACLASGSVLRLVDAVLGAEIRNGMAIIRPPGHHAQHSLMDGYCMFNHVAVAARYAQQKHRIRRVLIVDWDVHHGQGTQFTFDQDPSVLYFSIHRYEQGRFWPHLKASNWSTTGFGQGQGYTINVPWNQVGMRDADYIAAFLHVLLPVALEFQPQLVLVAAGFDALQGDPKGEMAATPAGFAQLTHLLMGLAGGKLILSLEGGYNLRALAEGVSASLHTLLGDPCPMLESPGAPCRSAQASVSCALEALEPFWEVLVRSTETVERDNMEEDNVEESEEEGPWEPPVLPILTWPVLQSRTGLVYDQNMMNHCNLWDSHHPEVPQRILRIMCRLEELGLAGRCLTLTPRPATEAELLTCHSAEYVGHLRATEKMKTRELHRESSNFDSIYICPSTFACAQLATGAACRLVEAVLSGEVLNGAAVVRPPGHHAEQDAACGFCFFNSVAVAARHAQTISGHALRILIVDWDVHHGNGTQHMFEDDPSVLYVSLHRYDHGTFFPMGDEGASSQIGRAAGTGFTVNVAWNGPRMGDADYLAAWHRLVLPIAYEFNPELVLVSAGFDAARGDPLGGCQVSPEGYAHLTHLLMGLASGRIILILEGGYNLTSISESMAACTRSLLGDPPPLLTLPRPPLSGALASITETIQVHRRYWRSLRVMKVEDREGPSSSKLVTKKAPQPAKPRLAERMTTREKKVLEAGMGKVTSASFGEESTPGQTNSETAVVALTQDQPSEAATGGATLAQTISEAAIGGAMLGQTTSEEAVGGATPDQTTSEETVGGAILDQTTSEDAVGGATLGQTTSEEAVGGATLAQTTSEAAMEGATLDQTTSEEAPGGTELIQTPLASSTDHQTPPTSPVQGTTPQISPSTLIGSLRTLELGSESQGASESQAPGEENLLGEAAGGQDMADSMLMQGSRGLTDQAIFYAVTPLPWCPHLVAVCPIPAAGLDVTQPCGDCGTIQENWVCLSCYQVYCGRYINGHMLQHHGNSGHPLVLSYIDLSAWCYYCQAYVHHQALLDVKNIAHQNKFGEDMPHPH
As to the kind of experiment: Inhibition of HDAC6 (unknown origin) incubated for 30 mins.

Data set [11] is described as follows: Plasma protein binding in rat assessed as unbound fraction. It counts as ADME, cell-free.
Data set [12] is described as follows: Plasma protein binding in mouse assessed as unbound fraction. It counts as ADME, cell-free.
The nature of data set [13]: Volume of distribution at steady state in C57/BI mouse at 1 mg/kg, po or 0.5 mg/kg, iv measured upto 24 hrs by LC-MS/MS analysis. It counts as ADME, organism-based. The note with it: in vivo.
Data set [14] is described as follows: AUC (0 to infinity) in C57/BI mouse at 1 mg/kg, po measured upto 24 hrs by LC-MS/MS analysis. It counts as ADME, organism-based. More on the design: time < 24 hrs, dose 1 mg/kg, route po. To be noted: in vivo.

Bounds are passed on as bounds.

The clearance is a measure of how efficiently the substance is removed, as volume per time. A lower clearance goes with a low capacity for elimination. A word on the fraction unbound: it is free concentration divided by total concentration. One may read the IC50 as the concentration that gives 50% inhibition. One may read the half-life as the time in which the quantity being followed falls by half. `O=C(NO)c1cnc(NC2(c3ccccc3)CCC(F)(F)CC2)nc1` returned a clearance in data set [1] of 180 mL/min/kg. Besides, the fraction unbound in data set [2] worked out at 0.23. This molecule came in with a Vdss in data set [3] of 2.2 L/kg. Further, the hepatocyte CLint at 1 µM in data set [4] was determined as 5.1 µL/min/1e6 cells. Moreover, the IC50 in [5] was 398 nM. Further, the half-life in data set [6] was 102 min; in data set [7], 12 min.
On to `CS(=O)(=O)NCC(Nc1ncc(-c2nnc(C(F)F)o2)cn1)c1ccc(OC(F)(F)F)cc1` (stereo unspecified), for which the half-life in data set [8] was 9.2 days; in data set [9] it was 706 min.
As usually defined, the AUC(0-inf) is total exposure, with the tail of the curve extrapolated. In the case of `FC(F)c1nnc(-c2ccc(Cn3nnc(-c4ccccn4)n3)nc2)o1`, the IC50 in data set [10] is 27 nM; in data set [5], 1000 nM. Also, the values for the fraction unbound in [11], in data set [2] and in [12] were 0.38, 0.13 and 0.27, respectively. Further, the clearance in data set [1] was found to be 3.2 mL/min/kg. For the same molecule, the figures for the half-life in [8] and in data set [9] were 3.5 days and 461 min, respectively. The Vdss is 1.8 L/kg in data set [3] and 0.9 L/kg in data set [13]. Further, the hepatocyte CLint at 1 µM in [4] is less than 1 µL/min/1e6 cells. In data set [14], this molecule showed an AUC(0-inf) of 21 µM·h.
